Literature values in patent US10568936B2, “Pharmaceutical composition for transmucosal delivery and methods for treating diabetes in a subject in need thereof” (Eastgate Pharmaceuticals Inc., priority 2014, dated 2020).

Experiments:
[1] = eutectic mixture with menthol

Compound: C[C@]12CC[C@H]3[C@@H](CCC4=CC(=O)CC[C@@]43C)[C@@H]1CC[C@@H]2O [testosterone]
- Increase in the solubility of testosterone in an aqueous ethanol vehicle [1]: 2.8 fold
- Increase in the flux of testosterone (eutectic mixture with menthol): 2.8 fold
- Further increase in skin flux (high concentration of menthol): eight times the base line
